From patent US12144864B2, “Tubulysins and protein-tubulysin conjugates” (Regeneron Pharmaceuticals, Inc., priority 2018, dated 2024)
Where two headings read alike, the source gives them in different places.

Experiments:
H69AR cells = test: Cytotoxicity in panel of MDR cell lines, H69AR (72 h and 144 h); format: cell-based, human; settings: for IC50: Homo sapiens
Description: (§1) To test the ability of the disclosed tubulysin payloads to kill human cell lines, an in vitro cytotoxicity assay was performed. In vitro cytotoxicity of the disclosed payloads, as well as reference compounds, were evaluated using the CellTiter-Glo Assay Kit (Promega, Cat #G7573), in which the quantity of ATP present is used to determine the number of viable cells in culture. For the assay, C4-2, HEK293, or T47D cells were seeded at 4000 cells/well on Nunclon white 96-well plates in complete growth medium (DME high glucose:Ham's F12 at 4:1, 10% FBS, 100 units/ml Penicillin, 100 ug/ml streptomycin, 53 ug/ml glutatmine, 10 ug/ml insulin, 220 ng/ml biotin, 12.5 pg/ml T3, 12.5 ug/ml Adenine, 4 ug/ml transferrin for C42 cells; DME high glucose, 10% FBS, 100 units/ml Penicillin, 100 ug/ml streptomycin, 53 ug/ml glutatmine for HEK293; RPMI, 10% FBS, 100 units/ml Penicillin, 100 ug/ml streptomycin, 53 ug/ml glutatmine, 10 ug/ml insulin, 10 mM HEPEs, 200 nM Sodium Pyruvate for T47D cells) and grown overnight at 37° C. in 5% CO2. For cell viability curves, 1:3 serially diluted payloads were added to the cells at final concentrations ranging from 100 nM to […], including a no treatment control group, and were then incubated for 5 days. After the 5-day incubation, cells were incubated at room temperature with 100 μL of CellTiter-Glo reagents for 10 minutes. Relative luminescence units (RLU) were determined on a Victor plate reader (PerkinElmer). The IC50 values were determined from a four-parameter logistic equation over a 10-point response curve (GraphPad Prism). All IC50 values are expressed in molar (M) concentration. The percent cell killing (% kill) at the maximum concentration tested was estimated from the following formula (100−% viable cells). Averages±standard deviation (SD) are included where replicate experiments were performed.
(§2) To further test the ability of the disclosed tubulysin payloads, a cytotoxicity assay was performed using a panel of multidrug resistant (MDR) cell lines. In vitro cytotoxicity of the disclosed payloads as well as reference compounds were similarly evaluated as described above except using HCT-15 cells, a colorectal carcinoma cell line; H69AR, a doxorubicin resistant MDR derivative of the small cell lung cancer carcinoma cell line NCI-H69; MES-SA/MX2, a mitoxantrone resistant MDR derivative of the uterine sarcoma cell line MES-SA; and HL60/MX2, a mitoxantrone resistant MDR derivative of the acute promyelocytic leukemia cell line HL60. In these assays, cytotoxicity was evaluated in normal growth media (RPMI, 10% FBS, 100 units/ml Penicillin, 100 ug/ml streptomycin, and 53 ug/ml glutatmine for HCT-15 and HL60/MX2; RPMI, 20% FBS, 100 units/ml Penicillin, 100 ug/ml streptomycin, and 53 ug/ml glutatmine for H69-AR; Waymouths's:McCoy's (1:1), 10% FBS, 100 units/ml Penicillin, 100 ug/ml streptomycin, and 53 ug/ml glutatmine for MES-SA/MX2) with 1000 cells per well following 72 h and 144 h incubation with payloads.

MES-SA/MX2 cells = test: Cytotoxicity in panel of MDR cell lines, MES-SA/MX2 (72 h and 144 h); format: cell-based, human; settings: for IC50: Homo sapiens
Description: as §1, §2

HCT-15 cells = test: Cytotoxicity in panel of MDR cell lines, HCT-15 (72 h and 144 h); format: cell-based, human; settings: for IC50: Homo sapiens
Description: as §1, §2

HL60/MX2 cells = test: Cytotoxicity in panel of MDR cell lines, HL60/MX2 (72 h and 144 h); format: cell-based, human; settings: for IC50: Homo sapiens
Description: as §1, §2

HCT15 cells = test: cells; format: cell-based, human; settings: HCT15 cells
Description: as §1
In vitro cytotoxicity of the disclosed payloads as well as reference compounds were evaluated similarly as described above except using 1000 HCT15 cells, a colorectal carcinoma cell line, in growth medium (RPMI, 10% FBS, 100 units/ml Penicillin, 100 ug/ml streptomycin, 53 ug/ml glutatmine) with or without 5 ug/mL of Verapamil.

C4-2 cells = test: Cell-based killing assay of payloads (CellTiter-Glo), C4-2 cells; parameters: species or system human; settings: 5-day incubation; for IC50: Homo sapiens, C4-2, 120 h, average ± SD where replicates; for C4-2 % Kill: at maximum concentration tested (100 − % viable cells)
Description: as §1

[1] = 72 h incubation, read-out: H69AR IC50 72 h
[2] = 144 h incubation, read-out: H69AR IC50 144 h
[3] = 72 h incubation, read-out: MES-SA/MX2 IC50 72 h
[4] = 144 h incubation, read-out: MES-SA/MX2 IC50 144 h
[5] = 72 h incubation, read-out: HCT-15 IC50 72 h
[6] = 144 h incubation, read-out: HCT-15 IC50 144 h
[7] = 72 h incubation, read-out: HL60/MX2 IC50 72 h
[8] = 144 h incubation, read-out: HL60/MX2 IC50 144 h

| Structure (SMILES) | H69AR % Kill 72 h (H69AR cells; 72 h incubation) [%] | H69AR % Kill 144 h (H69AR cells; 144 h incubation) [%] | IC50 (H69AR cells; [1]) [nM] | IC50 (H69AR cells; [2]) [nM] | MES-SA/MX2 % Kill 72 h (MES-SA/MX2 cells; 72 h incubation) [%] | MES-SA/MX2 % Kill 144 h (MES-SA/MX2 cells; 144 h incubation) [%] | IC50 (MES-SA/MX2 cells; [3]) [nM] | IC50 (MES-SA/MX2 cells; [4]) [nM] | HCT-15 % Kill 72 h (HCT-15 cells; 72 h incubation) [%] | HCT-15 % Kill 144 h (HCT-15 cells; 144 h incubation) [%] | IC50 (HCT-15 cells; [5]) [nM] | IC50 (HCT-15 cells; [6]) [nM] | HL60/MX2 % Kill 72 h (HL60/MX2 cells; 72 h incubation) [%] | HL60/MX2 % Kill 144 h (HL60/MX2 cells; 144 h incubation) [%] | IC50 (HL60/MX2 cells; [7]) [nM] | IC50 (HL60/MX2 cells; [8]) [nM] | IC50 (C4-2 cells) [nM] | C4-2 % Kill (C4-2 cells) [%] | also measured |
| --- | --- | --- | --- | --- | --- | --- | --- | --- | --- | --- | --- | --- | --- | --- | --- | --- | --- | --- | --- |
| CC[C@H](C)[C@H](NC(=O)[C@H]1CCCCN1C)C(=O)N(CCCCc1cn(-c2ccccc2)nn1)[C@H](C[C@@H](OC(C)=O)c1nc(C(=O)N[C@@H](Cc2ccc(N)cc2)CC(C)(C)C(=O)O)cs1)C(C)C [IVp, (S)-4-(2-((1R,3R)-1-acetoxy-4-methyl-3-((2S,3S)-3-methyl-2-((R)-1-methylpiperidine-2-carboxamido)-N-(4-(1-phenyl-1H-1,2,3-triazol-4-yl)butyl)pentanamido)pentyl)thiazole-4-carboxamido)-5-(4-aminophenyl)-2,2-dimethylpentanoic acid] | 96.3 | 99.2 | 0.644 | 1.12 | 98.8 | 99.9 | 0.792 | 1.66 | 97.6 | 99.7 | 0.181 | 0.231 | 97.5 | 99.9 | 0.0237 | < 0.015 | 0.177 | 94.2 | HCT-15 + verapamil % Kill (HCT15 cells; with 5 ug/mL Verapamil, maximum % cell killing): 97.6%; IC50 (HCT15 cells; with 5 ug/mL Verapamil, read-out: HCT-15 + verapamil IC50): 0.0864 nM; HCT-15 % Kill (HCT15 cells; without Verapamil, maximum % cell killing): 98.7%; IC50 (HCT15 cells; Homo sapiens, HCT-15, without Verapamil, read-out: HCT-15 IC50): 0.239 nM |
| CCCCCCN(C(=O)[C@@H](NC(=O)[C@H]1CCCCN1C)[C@@H](C)CC)[C@H](C[C@@H](OC(C)=O)c1nc(C(=O)NC(Cc2ccc(F)c(NC)c2)CC(C)(C)C(=O)O)cs1)C(C)C (stereo partly drawn) [IVt, 4-(2-((1R,3R)-1-acetoxy-3-((2S,3S)—N-hexyl-3-methyl-2-((R)-1-methylpiperidine-2-carboxamido)pentanamido)-4-methylpentyl)thiazole-4-carboxamido)-5-(4-fluoro-3-(methylamino)phenyl)-2,2-dimethylpentanoic acid] | 96.3 | 99.3 | 0.486 | 0.819 | 99.3 | 100 | 0.447 | 0.74 | 97.6 | 99.8 | 0.143 | 0.18 | 98.4 | 100 | < 0.015 | < 0.015 | 0.11 | 94.2 | – |
| CCCCCCN(C(=O)[C@@H](NC(=O)[C@H]1CCCCN1C)[C@@H](C)CC)[C@H](C[C@@H](OC(C)=O)c1nc(C(=O)NC(Cc2ccc(F)c(N)c2)CC(C)(C)C(=O)O)cs1)C(C)C (stereo partly drawn) [IVu, 4-({2-[(1R,3R)-1-(Acetyloxy)-3-[(2S,3S)—N-hexyl-3-methyl-2-{[(2R)-1-methylpiperidin-2-yl]formamido}pentanamido]-4-methylpentyl]-1,3-thiazol-4-yl}formamido)-5-(3-amino-4-fluorophenyl)-2,2-dimethylpentanoic acid] | 96.4 | 99 | 0.634 | 1.04 | 98.8 | 100 | 0.535 | 1.21 | 97.9 | 99.8 | 0.134 | 0.242 | 98 | 99.9 | < 0.015 | < 0.015 | 0.114 | 93.9 | – |
